Results as given in patent publication US10080811B2, “Diagnostic marker compounds and their use” (University of Leeds, priority 2012, dated 2018).

What was measured:
SH-SY5Y cells = conditions: 500 μM H2O2 24 hours before, 24 hours exposure
Protocol: Cytoprotective effect tests were performed on SH-SY5Y cells that had previously been exposed to hydrogen peroxide for 24 hours.

C57BL/6J mice = conditions: IP injection
Protocol: After 24 hours mice were perfused transcardially with 0.9% saline followed by 4% paraformaldehyde. Brains, arteries, heart, liver kidneys were removed, post-fixed and […] sections were cut on a vibratome (Leica Microsystems, Germany) The sections were mounted on slides, dried at 4° C., cover slipped using vectashield mounting medium and examined using a Zeiss laser scanning confocal microscope (LSM 510).

Row | SMILES | cytoprotective potency, comparison of the two nitrates (SH-SY5Y cells) | effect on hydrogen peroxide's cytotoxicity (SH-SY5Y cells; n=80) | blood brain barrier passage (labelling in the brain tissue) (C57BL/6J mice) | highest number of fluorescent peaks, brain tissue (C57BL/6J mice; 100 μM solution, 24 hours) [peaks per 100 μm^2 area] | highest number of fluorescent peaks, heart tissue (C57BL/6J mice; 100 μM solution, 24 hours) [peaks in a 100 μm^2 area] | highest number of fluorescent peaks, liver tissue (C57BL/6J mice; 100 μM solution, 24 hours) [peaks in a 100 μm^2 area] | highest number of fluorescent peaks, lung tissue (C57BL/6J mice; 100 μM solution, 24 hours) [peaks in a 100 μm^2 area] | uptake into hepatocytes in liver tissue (C57BL/6J mice; higher magnifications)
1 | O=[N+]([O-])[O-].O=[N+]([O-])[O-].O=[N+]([O-])[O-].[Ce+3] [cerium nitrate] | more potent antioxidant-based cytoprotective agent compared to europium nitrate | significantly inhibiting hydrogen peroxide's cytotoxicity |  |  |  |  |  | 
2 | O=[N+]([O-])[O-].O=[N+]([O-])[O-].O=[N+]([O-])[O-].[Eu+3] [europium nitrate] |  |  | cross the blood brain barrier | ≥ 20 | ≤ 1 | < 10 | ≤ 1 | had entered the hepatocytes
